{"source": "patent US11471394B2", "about": "“Oral care compositions containing deoxy sugar antimetabolites” (Colgate-Palmolive Company, priority 2013, dated 2022)", "assay_type_in_all_cases": "cell-based", "key": {"[1]": {"test_system": "biofilm of Actinomyces naeslundii (ATCC 43146), Lactobacillus casei (ATCC 334), Streptococcus oralis (ATCC 35037), Veillonella parvula (ATCC 17745) and …", "assay": "Example 2: biofilm formation on hydroxyapatite discs (safranine staining, absorbance at 492 nm)", "details": "for biofilm inhibition (in words): 0.01 wt. %, Example 2; for % biofilm inhibition: compound 0.01 wt. %, 24 hours, safranine, absorbance at 492 nm", "description": "(§1) A similar test protocol to Example 1 was performed and tested for its effect in the inhibition of planktonic growth and inhibition of biofilm formation\n(§2) The species used for biofilm formation were: Actinomyces naeslundii (ATCC 43146). Lactobacillus casei (ATCC 334), Streptococcus oralis (ATCC 35037), Veillonella parvula (ATCC 17745) and Fusobacterium nucleatum (ATCC 10953). Strains were grown under anaerobic conditions at 37° C. for 72 hours. All the bacteria were grown on an anaerobic blood agar.\n(§3) The formula for the anaerobic blood agar was as follows: 52 g/l Brain Heart Infusion Agar (DIFCO), and after autoclaving the following products are added: 1 ml/l baemin from a solution 5 mg/ml, 1 ml/l of vitamin K1 from a solution 100 μg/ml and 50 ml of horse blood. A 24 well microtiter for cell culture (Nalgene Nunc International, Denmark) was used to generate in vitro dental biofilms.\n(§4) Wells were filled with 800 μl of the mucin growth medium (MGM), a modification of the medium used by Kinniment et al. (Kinniment, S. L., Wimpenny. J. W., Adams, D., and Marsh, P. D. (1996) Development of a steady-state oral microbial biofilm community using the constant-depth film fermenter. Microbiology 142 (Pt 3): 631-638) which presents a high concentration of proteins: 2.5 g/l mucin, 5 g/l Heart Infusion Broth (DIFCO), 2.0 g/l sodium bicarbonate, 1.0 g/l yeast extract and 0.1 g/l cysteine and 4 ml resazurin from a solution 25 mg/100 ml.\nThe pH is adjusted to 7.4 prior to autoclaving. After autoclaving the following products was added: 1 ml/l haemin from a solution 5 mg/ml and 1 mL/l of vitamin K1 from a solution 100 μg/ml. Sterile hydroxyapatite discs of 7 mm×1.8 mm (Clarkson Inc., USA) was later placed into the wells. In order to form the acquired pellicle the discs were allowed to stay at least 60 hours in contact with the medium under anaerobic conditions prior inoculation. This period of pre-incubation allows checking for possible contaminations and adjusts the final pH to 7.5.\nEach of the strains grown on agar was resuspended in MGM medium until reach a turbidity of a McFarlan 3 (approximately 10^8 CFU/ml). Finally, 1 ml of each suspension from the different strains was mixed and 50 μl of this suspension was added into each of the wells in the microtiter plate. Microtiter plates were incubated under anaerobic conditions at 37° C. in an anaerobic chamber. A control of growth was performed in parallel. […]\n(§5) After 24 hours planktonic phase was saved to measure growth at OD600 and hydroxyapatite disks were washed with sterile PBS and stained with safranine 0.1% for 15 minutes. […] Absorbance at 492 nm measures the amount of safranine retained by the biofilm."}, "[2]": {"test_system": "five representative oral bacterial species: A. viscosus, L. casei, S. oralis, V. parvula and F. nucleatum", "assay": "Example 1: bacterial growth in the supernatant media of healthy biofilm model (absorbance)", "details": "for % bacterial reduction (A): compound 0.01 wt. %, 48 hours, reduction in absorbance of supernatant media relative to disks treated with media alone", "description": "(§6) 0.5″ Ca^2+-deficient hydroxyapatite (HAP) disks were coated with UV-sterilized human saliva overnight.\n(§7) After 1 hour, excess treatment was removed by aspiration and disks were inoculated with 1 ml of bacteria from a continuous culture system at an OD(600) of about 0.2. The continuous culture system was maintained for approximately three months at 37° C. and contained five representative oral bacterial species: A. viscosus, L. casei, S. oralis, V. parvula and F. nucleatum. Previous work has shown this mix to form repeatable biofilms that can serve as a representation of the more complex mix of 500-700 bacterial species found in dental plaque.\n(§8) The inoculated scHAP disks were incubated for 48 hours at 37° C. to allow a biofilm to form on them. After 48 hours of biofilm formation, disks were transferred to test tubes containing 1 ml of 0.25% trypsin solution. Disks were incubated at 37° C. with shaking for 45 minutes. The tubes were briefly vortexed to resuspend the bacteria, and the supernatants were then transferred to a fresh 24 well plate. Plates were […] for 2 minutes to pellet any residual HAP flakes and the supernatants were removed to fresh plates so that their absorbance could be measured at 610 nm. All samples were tested in triplicate and the average of the three wells was determined.\nIn addition to the absorbance of the trypsin-digested resuspended bacterial solution, similar absorbance measurements were also taken of the final supernatant media after the biofilms were allowed to grow for 48 hours.\nThe effect of 2-deoxy-D-glucose on bacterial growth in the supernatant media in which the biofilms were grown is shown in the table below."}, "[3]": {"test_system": "biofilm of five representative oral bacterial species: A. viscosus, L. casei, S. oralis, V. parvula and F. nucleatum", "assay": "Example 1: healthy biofilm formation on saliva-coated HAP disks (absorbance at 610 nm after trypsin)", "details": "for biofilm inhibition (in words): 0.01 wt. %, Example 1; for % biofilm inhibition (B) / % biofilm inhibition efficiency (C): compound 0.01 wt. %; for % biofilm inhibition (B): 48 hours biofilm, reduction in absorbance relative to disks treated with media alone; for % biofilm inhibition efficiency (C): C=B/A×100%", "description": "as §6, §7, §8"}, "[4]": {"test_system": "Actinomyces naeslundii (ATCC 43146), Lactobacillus casei (ATCC 334), Streptococcus oralis (ATCC 35037), Veillonella parvula (ATCC 17745) and Fusobacterium …", "assay": "Example 2: planktonic growth (OD600) in healthy biofilm model", "details": "for % planktonic growth inhibition: compound 0.01 wt. %, 24 hours, OD600", "description": "as §1, §2, §3, §4\nThe pH is adjusted to 7.4 prior to autoclaving. After autoclaving the following products was added: 1 ml/l haemin from a solution 5 mg/ml and 1 mL/l of vitamin K1 from a solution 100 μg/ml. Sterile hydroxyapatite discs of 7 mm×1.8 mm (Clarkson Inc., USA) was later placed into the wells. […]\nas §5"}, "[5]": {"test_system": "pathogenic biofilm spiked with P. gingivalis", "assay": "Example 3: pathogenic biofilm model spiked with P. gingivalis", "details": "overall conclusion, no data given", "description": "A similar experiment was conducted using a pathogenic biofilm model. Biofilms were inoculated as above for the healthy biofilms. Initial bacterial attachment and biofilm formation was allowed to proceed for 4 hours. After the initial 4 hours, each biofilm was spiked with 100 μL of an overnight culture of P. gingivalis. Biofilms were then allowed to grow for another 48 hours prior to trypsin treatment, and absorbance measurements were taken as described above."}}}
{"molecule": "Cl.NCC(O)CCC(N)C(=O)O", "note": "(racemic) [DL-5-hydroxylysine HCl, reference compound]", "values": [{"measurement": "biofilm inhibition (in words)", "setting": "[1]", "result": "minimal biofilm inhibition"}, {"measurement": "% biofilm inhibition", "setting": "[1]", "result": 5.91, "unit": "%"}, {"measurement": "bacterial reduction (in words)", "setting": "[2]; 0.01 wt. %, Example 1", "result": "significant bacterial reduction"}, {"measurement": "% bacterial reduction (A)", "setting": "[2]", "result": 21.45, "unit": "%"}, {"measurement": "biofilm inhibition (in words)", "setting": "[3]", "result": "negligible biofilm inhibition"}, {"measurement": "% biofilm inhibition (B)", "setting": "[3]", "result": 5.85, "unit": "%"}, {"measurement": "% biofilm inhibition efficiency (C)", "setting": "[3]", "result": 27.27, "unit": "%"}, {"measurement": "planktonic growth inhibition (in words)", "setting": "[4]; 0.01 wt. %, Example 2", "result": "no planktonic growth inhibition"}, {"measurement": "% planktonic growth inhibition", "setting": "[4]", "result": 0.00, "unit": "%"}]}
{"molecule": "Oc1cc(Cl)ccc1Oc1ccc(Cl)cc1Cl", "note": "[Triclosan]", "values": [{"measurement": "% bacterial reduction (A)", "setting": "[2]", "result": 85.63, "unit": "%"}]}
{"molecule": "C[C@@H](O)[C@@H](O)[C@H](O)[C@@H](O)C=O", "note": "[6-deoxy-D-glucose]", "values": [{"measurement": "% bacterial reduction (A)", "setting": "[2]", "result": 1.54, "unit": "%"}, {"measurement": "biofilm inhibition (in words)", "setting": "[3]", "result": "effective and efficient inhibitor of biofilm formation"}, {"measurement": "% biofilm inhibition (B)", "setting": "[3]", "result": 25.33, "unit": "%"}, {"measurement": "% biofilm inhibition efficiency (C)", "setting": "[3]", "result": 1644.81, "unit": "%"}, {"measurement": "inhibition of oral biofilm formation (in words)", "setting": "[5]", "result": "very good inhibitors of oral biofilm formation"}]}
{"molecule": "O=C[C@H](F)[C@@H](O)[C@H](O)[C@H](O)CO", "note": "[2-fluoro-2-deoxy-D-glucose]", "values": [{"measurement": "% bacterial reduction (A)", "setting": "[2]", "result": 0.00, "unit": "%"}, {"measurement": "biofilm inhibition (in words)", "setting": "[3]", "result": "effective and efficient inhibitor of biofilm formation"}, {"measurement": "% biofilm inhibition (B)", "setting": "[3]", "result": 46.50, "unit": "%"}, {"measurement": "% biofilm inhibition efficiency (C)", "setting": "[3]", "result": ">>>1000%"}, {"measurement": "inhibition of oral biofilm formation (in words)", "setting": "[5]", "result": "very good inhibitors of oral biofilm formation"}]}
{"molecule": "CCCCCCCCCCCCCCCC[n+]1ccccc1", "note": "[CPC, cetylpyridinium chloride]", "values": [{"measurement": "% bacterial reduction (A)", "setting": "[2]", "result": 65.44, "unit": "%"}]}
{"molecule": "Benzalkonium chloride [reference compound]", "values": [{"measurement": "% bacterial reduction (A)", "setting": "[2]", "result": 88.21, "unit": "%"}, {"measurement": "% biofilm inhibition (B)", "setting": "[3]", "result": 52.58, "unit": "%"}, {"measurement": "% biofilm inhibition efficiency (C)", "setting": "[3]", "result": 59.61, "unit": "%"}]}
{"molecule": "N[C@H](C=O)[C@@H](O)[C@H](O)[C@H](O)CO", "note": "[D-mannosamine, 2-amino-2-deoxy-D-mannose]", "values": [{"measurement": "biofilm inhibition (in words)", "setting": "[1]", "result": "effective inhibition of biofilm formation"}, {"measurement": "% biofilm inhibition", "setting": "[1]", "result": 34.01, "unit": "%"}, {"measurement": "% planktonic growth inhibition", "setting": "[4]", "result": 0.00, "unit": "%"}]}
{"molecule": "O=CC[C@@H](O)[C@H](O)[C@H](O)CO", "note": "[2-deoxy-D-glucose]", "values": [{"measurement": "% bacterial reduction (A)", "setting": "[2]", "result": 9.81, "unit": "%"}, {"measurement": "% biofilm inhibition (B)", "setting": "[3]", "result": 30.54, "unit": "%"}, {"measurement": "% biofilm inhibition efficiency (C)", "setting": "[3]", "result": 311.31, "unit": "%"}]}
